Experimental data as given in patent EP0210284B1, “1,3-Dithiol-2-ylidene derivatives” (priority 1985, dated 1987).
Where two headings read alike, the source gives them in different places.

Key:
[1] = system: Acute Liver Injury Induced by Carbon Tetrachloride; test: Protective effect on acute liver injury induced by carbon tetrachloride; format: in vivo, mice (ddY mice); conditions: for Liver Damage Index: 50mg/kg orally in olive oil 6 hours before carbon tetrachloride (0.05ml/kg orally), visual score 0: normal, 2: slightly, 4: distinctly, 6: remarkably injured, n=5, CCl4 alone 6.0; for inhibition in vivo at 50 mg/kg: Mus musculus, po, 50mg/kg orally 6 hours before carbon tetrachloride (0.05ml/kg orally), CCl4 alone 0, Normal 100
Protocol: A test compound was dissolved or suspended in olive oil and administered orally at a dose of 50mg/kg to mice (ddY mice, ? , 23 ± 2g, n=5). After 6 hours, carbon tetrachloride (0.05ml/kg) was administered orally. 24 Hours after the administration of carbon tetrachloride, BSP (sodium sulfobromophthalene; 75mg/kg) was administered intravenously. Thirty minutes later, the cardiac blood was collected, and GPT (glutamic-pyruvic transaminase) activity and the retention rate of BSP in the plasma were measured. Further, the liver injury immediately after the collection of the blood was visually observed and evaluated by the following score for liver damage index. 0: normal 2: Slightly injured 4: distinctly injured 6: remarkably injured

[2] = system: mice (ddY mice); test: Acute toxicity test; format: in vivo; conditions: oral in olive oil, mortality one week after the administration, n=5
Protocol: A test compound was dissolved or suspended in olive oil and administered orally to mice (ddY mice, ? , 23±2g, n=5). The acute toxicity value (LD₅₀) was determined from the mortality one week after the administration.

[3] = 24.5 h, retention rate of BSP in plasma 30 minutes after BSP 75mg/kg i.v., read-out: % Prophylaxis BSP
[4] = plasma GPT about 24.5 hours after CCl4, read-out: % Prophylaxis p-GPT

Structure (SMILES) | Liver Damage Index [1] | inhibition in vivo at 50 mg/kg [1, 3] | inhibition in vivo at 50 mg/kg [1, 4] | acute toxicity value (LD50) [2]
CC(C)CC(=O)C(C(=O)c1ccccc1)=C1SC=CS1 [Compound 8, 2-(1,3-dithiol-2-ylidene)-5-methyl-1-phenyl-1,3-hexanedione] | 1.2 | 110% | 100% | at least 2 g
CC(=O)C(C(=O)Cc1ccccc1)=C1SC=CS1 [Compound 32, 3-(1,3-dithiol-2-ylidene)-1-phenyl-2,4-pentanedione] | 0.4 | 124% | 95% | 
CCCC(=O)C(C(=O)c1ccccc1)=C1SC=CS1 [Compound 7, 2-(1,3-dithiol-2-ylidene)-1-phenyl-1,3-hexanedione] | 1.6 | 108% | 100% | at least 2 g
CC(=O)C(C(=O)c1ccc(C)cc1)=C1SC=CS1 [Compound 12, 2-(1,3-dithiol-2-ylidene)-1-(4-methylphenyl)-1,3-butanedione] | 0.6 | 114% | 100% | at least 2 g
COc1ccccc1C(=O)C(C(C)=O)=C1SC=CS1 [Compound 16, 2-(1,3-dithiol-2-ylidene)-1-(2-methoxyphenyl)-1,3-butanedione] | 0.6 | 95% | 99% | 
COc1ccc(C(=O)C(C(C)=O)=C2SC=CS2)cc1 [Compound 17, 2-(1,3-dithiol-2-ylidene)-1-(4-methoxyphenyl)-1,3-butanedione] | 0 | 100% | 100% | at least 2 g
CC(C)(C)C(=O)C(C(=O)c1ccccc1)=C1SC=CS1 [Compound 9, 2-(1,3-dithiol-2-ylidene)-4,4-dimethyl-1-phenyl-1,3-pentanedione] | 0.4 | 103% | 100% | 
O=C(Cc1ccccc1)C(C(=O)c1ccccc1)=C1SC=CS1 [Compound 37, 2-(1,3-dithiol-2-ylidene)-1,4-diphenyl-1,3-butanedione] | 1.8 | 99% | 100% | 
CC(=O)C(C(=O)c1cccnc1)=C1SC=CS1 [Compound 21, 2-(1,3-dithiol-2-ylidene)-1-(3-pyridyl)-1,3-butanedione] | 0.8 | 100% | 98% | 
O=C(C(C(=O)c1ccc(Cl)cc1)=C1SC=CS1)c1ccc(Cl)cc1 [Compound 35, 2-(1,3-dithiol-2-ylidene)-1,3-di(4-chlorophenyl)-1,3-propanedione] | 0 | 114% | 100% | 
O=C(C(C(=O)C(F)(F)F)=C1SC=CS1)c1ccccc1 [Compound 31, 2-(1,3-dithiol-2-ylidene)-1-phenyl-4,4,4-trifluoro-1,3-butanedione] | 0.4 | 106% | 100% | 
CC(=O)C(C(=O)c1cc2ccccc2[nH]1)=C1SC=CS1 [Compound 29, 2-(1,3-dithiol-2-ylidene)-1-(2-indolyl)-1,3-butanedione] | 0.8 | 104% | 100% | 
CC(=O)C(C(=O)c1cccc2ccccc12)=C1SC=CS1 [Compound 27, 2-(1,3-dithiol-2-ylidene)-1-(1-naphthyl)-1,3-butanedione] | 0 | 100% | 100% | at least 2 g
CC(=O)C(C(=O)c1cnccn1)=C1SC=CS1 [Compound 26, 2-(1,3-dithiol-2-ylidene)-1-pyrazinyl-1,3-butanedione] | 0.4 | 99% | 96% | 
CC(=O)C(C(=O)C=Cc1ccccc1)=C1SC=CS1 [Compound 33, 4-(1,3-dithiol-2-ylidene)-1-phenyl-1-hexene-3,5-dione] | 4.2 | 86% | 77% | 
CC(=O)C(C(=O)c1ccc(O)cc1)=C1SC=CS1 [Compound 45, 2-(1,3-dithiol-2-ylidene)-1-(4-hydroxyphenyl)-1,3-butanedione] | 0.2 | 111% | 100% | at least 2 g

Structure (SMILES) | Liver Damage Index [1] | inhibition in vivo at 50 mg/kg [1, 3] | inhibition in vivo at 50 mg/kg [1, 4] | acute toxicity value (LD50) [2]
CC(=O)C(C(=O)c1ccc(Br)cc1)=C1SC=CS1 [Compound 15, 2-(1,3-dithiol-2-ylidene)-1-(4-bromophenyl)-1,3-butanedione] | 3.2 | 105% | 100% | 
CC(=O)C(C(=O)c1ccc2ccccc2n1)=C1SC=CS1 [Compound 30, 2-(1,3-dithiol-2-ylidene)-1-(2-quinolyl)-1,3-butanedione] | 2.0 | 105% | 98% | 
CC(=O)C(C(=O)c1ccc(Cl)cc1)=C1SC=CS1 [Compound 14, 2-(1,3-dithiol-2-ylidene)-1-(4-chlorophenyl)-1,3-butanedione] | 0.4 | 113% | 100% | 
CC=CC(=O)C(C(=O)c1ccccc1)=C1SC=CS1 [Compound 11, 2-(1,3-dithiol-2-ylidene)-1-phenyl-4-hexene-1,3-dione] | 0.8 | 105% | 100% | 
COc1ccc(C(=O)C(C(C)=O)=C2SC=CS2)cc1OC [Compound 18, 2-(1,3-dithiol-2-ylidene)-1-(3,4-dimethoxyphenyl)-1,3-butanedione] | 0.4 | 100% | 54% | 
CC(=O)C(C(=O)c1ccc([N+](=O)[O-])cc1)=C1SC=CS1 [Compound 19, 2-(1,3-dithiol-2-ylidene)-1-(4-nitrophenyl)-1,3-butanedione] | 1.6 | 100% | 100% | 
CC(=O)C(C(=O)c1ccncc1)=C1SC=CS1 [Compound 22, 2-(1,3-dithiol-2-ylidene)-1-(4-pyridyl)-1,3-butanedione] | 0.2 | 120% | 100% | 
O=C(C(C(=O)c1ccccc1)=C1SC=CS1)c1ccccc1 [Compound 34, 2-(1,3-dithiol-2-ylidene)-1,3-diphenyl-1,3-propanedione] | 0.8 | 112% | 100% | 
CC(=O)C(C(=O)c1cccs1)=C1SC=CS1 [Compound 24, 2-(1,3-dithiol-2-ylidene)-1-(2-thienyl)-1,3-butanedione] | 0 | 102% | 100% | 
COc1ccc(C(=O)C(C(=O)c2ccc(OC)cc2)=C2SC=CS2)cc1 [Compound 36, 2-(1,3-dithiol-2-ylidene)-1,3-di(4-methoxyphenyl)-1,3-propanedione] | 0 | 119% | 100% | 
CC(=O)C(C(=O)c1ccco1)=C1SC=CS1 [Compound 23, 2-(1,3-dithiol-2-ylidene)-1-(2-furyl)-1,3-butanedione] | 1.0 | 110% | 94% | 
CC(=O)C(C(=O)c1ccc(N)cc1)=C1SC=CS1 [Compound 46, 2-(1,3-dithiol-2-ylidene)-1-(4-aminophenyl)-1,3-butanedione] | 0.4 | 106% | 100% | 
O=C(C=Cc1ccccc1)C(C(=O)c1ccccc1)=C1SC=CS1 [Compound 38, 4-(1,3-dithiol-2-ylidene)-1,5-diphenyl-1-pentene-3,5-dione] | 3.2 | 96% | 66% | 
CC(=O)C(C(=O)c1ccc2ccccc2c1)=C1SC=CS1 [Compound 28, 2-(1,3-dithiol-2-ylidene)-1-(2-naphthyl)-1,3-butanedione] | 0 | 100% | 99% | at least 2 g
CC(=O)C(C(=O)c1ccc[nH]1)=C1SC=CS1 [Compound 25, 2-(1,3-dithiol-2-ylidene)-1-(2-pyrrolyl)-1,3-butanedione] | 2.2 | 88% | 76% | 
